Experimental data taken from patent publication US10995091B2 (Proximagen, LLC, priority 2010, dated 2021).

Molecular target: T1, Human CXCR4 transfected HEK293 cells (Homo sapiens, UniProt P61073)
T1 construct: expressed in transfected cells; host or cells: HEK293
Experiment: CXCR4 functional calcium assay (calcium flux FLIPR, antagonism of SDF1 response)
Type: cell-based
Settings: CXCR4 functional activity, antagonism of SDF1 (EC50 concentration), read-out: CXCR4 fKi
Description: The functional activity of test compounds was routinely tested by measuring the ability of compounds to antagonize CXCR4 activity in a dose dependent manner, using a calcium flux Fluorescent Imaging Plate Reader FLIPR assay.
Human CXCR4 transfected HEK293 cells were cultured in Dulbecco's modified Eagles medium containing 4.5 g/L glucose, L-glutamine, pyruvate, 50 µg/mL Geneticin and 250 µg/mL hygromycin B and maintained at 37° C. in a humidified, 5% CO2 controlled atmosphere. Subcultivations were performed every 2-3 d.
At confluence the cells were lifted using Ca^2+ and Mg^2+ free PBS/0.02% (w/v) EDTA, spun at 1000 rpm for 3 min and resuspended at 2.5×10^5 cells/mL. Cells were plated into a 384 well, poly-d-lysine coated, black with clear bottomed plate (Becton Dickinson) at 7500 cells/well. The plates were incubated overnight at 37° C. under 5% CO2. On the day of the experiment the cells were washed with incubation Buffer (HBSS containing 2.5 mM probenecid, 0.1% w/v BSA and 10 mM HEPES, pH 7.4 at 37° C.). After washing, the cells were loaded with Fluo-4 AM dye (Molecular probes) at 2 µM containing 0.48 µg/mL pluronic acid for 60 min at 37° C. under 5% CO2. After thorough washing with incubation buffer the cells were preincubated for 10 min at 37° C. before use.
A combined agonist/antagonist protocol was used to measure changes in intracellular calcium concentration. Compound (antagonist) was added to the cell plate using a Fluorometric Imaging Plate Reader (FLIPR) (Molecular Devices, Sunnyvale, Calif., USA). Basal fluorescence was recorded every second for 10 seconds prior to compound addition (10 μl) and fluorescence recorded every second for 1 min then every 6 seconds for a further 1 min. SDF1[…] (EC50 concentration) was then added using the FLIPR and fluorescence recorded as described above. Curve-fitting and parameter estimation were carried out using GraphPad Prism 4.0 (GraphPad Software Inc., San Diego, Calif.).

T1 sequence (P61073 whole entry): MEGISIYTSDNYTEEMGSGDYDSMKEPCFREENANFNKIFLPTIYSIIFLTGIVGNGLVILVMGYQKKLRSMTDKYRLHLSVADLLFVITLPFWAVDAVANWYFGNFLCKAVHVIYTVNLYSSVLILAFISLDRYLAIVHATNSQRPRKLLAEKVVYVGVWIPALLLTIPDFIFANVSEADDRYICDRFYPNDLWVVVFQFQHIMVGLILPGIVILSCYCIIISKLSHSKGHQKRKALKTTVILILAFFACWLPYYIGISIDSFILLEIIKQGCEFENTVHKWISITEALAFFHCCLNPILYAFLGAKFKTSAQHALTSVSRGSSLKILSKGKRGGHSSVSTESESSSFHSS

SMILES | Ki [nM]
CC(C)N1CCC(N2CCCN(c3cccc(C(=O)N(C)Cc4cccnc4)n3)CC2)CC1 [Example 35, N-Methyl-6-{4-[1-(Propan-2-yl)piperidin-4-yl]-1,4-diazepan-1-yl}-N-(pyridin-3-ylmethyl)pyridine-2-carboxamide] | 100 to 500
CC(C)N1CCC(N2CCCN(c3cccc(C(=O)NCc4ccncc4)n3)CC2)CC1 [Example 36, 6-{4-[1-(Propan-2-yl)piperidin-4-yl]-1,4-diazepan-1-yl}-N-(pyridin-4-ylmethyl)pyridine-2-carboxamide] | < 20
CC(C)N1CCC(N2CCCN(c3cccc(C(=O)NCc4nccn4C)n3)CC2)CC1 [Example 37, N-[(1-Methyl-1H-imidazol-2-yl)methyl]-6-{4-[1-(propan-2-yl)piperidin-4-yl]-1,4-diazepan-1-yl}pyridine-2-carboxamide] | 100 to 500
CC(C)N1CCC(N2CCCN(c3cccc(C(=O)NCc4ncco4)n3)CC2)CC1 [Example 38, N-(1,3-Oxazol-2-ylmethyl)-6-{4-[1-(propan-2-yl)piperidin-4-yl]-1,4-diazepan-1-yl}pyridine-2-carboxamide] | 20 to 100
CC(C)N1CCC(N2CCCN(c3cccc(C(=O)NCc4nccs4)n3)CC2)CC1 [Example 39, 6-{4-[1-(Propan-2-yl)piperidin-4-yl]-1,4-diazepan-1-yl} N-(1,3-thiazol-2-ylmethyl)pyridine-2-carboxamide] | 20 to 100
CC(C)N1CCC(N2CCCN(c3cccc(C(=O)NCc4ccco4)n3)CC2)CC1 [Example 40, N-(Furan-2-ylmethyl)-6-{4-[1-(propan-2-yl)piperidin-4-yl]-1,4-diazepan-1-yl}pyridine-2-carboxamide] | < 20
CC(C)N1CCC(N2CCCN(c3cccc(C(=O)NCc4cocn4)n3)CC2)CC1 [Example 41, N-(1,3-Oxazol-4-ylmethyl)-6-{4-[1-(propan-2-yl)piperidin-4-yl]-1,4-diazepan-1-yl}pyridine-2-carboxamide] | 20 to 100
CC(C)N1CCC(N2CCCN(c3cccc(C(=O)NCc4cscn4)n3)CC2)CC1 [Example 42, 6-{4-[1-(Propan-2-yl)piperidin-4-yl]-1,4-diazepan-1-yl}-N-(1,3-thiazol-4-ylmethyl)pyridine-2-carboxamide] | 20 to 100
CC(C)N1CCC(N2CCCN(c3cccc(C(=O)NCc4cncs4)n3)CC2)CC1 [Example 43, 6-{4-[1-(Propan-2-yl)piperidin-4-yl]-1,4-diazepan-1-yl}-N-(1,3-thiazol-5-ylmethyl)pyridine-2-carboxamide] | 20 to 100
CC(C)N1CCC(N2CCCN(c3cccc(C(=O)NCc4cnco4)n3)CC2)CC1 [Example 44, N-(1,3-Oxazol-5-ylmethyl)-6-{4-[1-(propan-2-yl)piperidin-4-yl]-1,4-diazepan-1-yl}pyridine-2-carboxamide] | 20 to 100
CC(C)N1CCC(N2CCCN(c3cccc(C(=O)NCCn4ccnc4)n3)CC2)CC1 [Example 45, N-[2-(1H-Imidazol-1-yl)ethyl]-6-{4-[1-(propan-2-yl)piperidin-4-yl]-1,4-diazepan-1-yl}pyridine-2-carboxamide] | 20 to 100
CC(C)N1CCC(N2CCCN(c3cccc(C(=O)NCCc4ccccn4)n3)CC2)CC1 [Example 46, 6-{4-[1-(Propan-2-yl)piperidin-4-yl]-1,4-diazepan-1-yl}-N-[2-(pyridin-2-yl)ethyl]pyridine-2-carboxamide] | 20 to 100
O=C(NCC1CCOCC1)c1cccc(N2CCCN(C3CCN(Cc4ccccc4Cl)CC3)CC2)n1 [Example 47, 6-(4-{1-[(2-Chlorophenyl)methyl]piperidin-4-yl}-1,4-diazepan-1-yl)-N-(oxan-4-ylmethyl)pyridine-2-carboxamide] | < 20
O=C(NCC(F)(F)F)c1cccc(N2CCCN(C3CCN(Cc4ccccc4Cl)CC3)CC2)n1 [Example 48, 6-(4-{1-[(2-Chlorophenyl)methyl]piperidin-4-yl}-1,4-diazepan-1-yl)-N-(2,2,2-trifluoroethyl)pyridine-2-carboxamide] | 100 to 500
